Experimental data: US20060252766A1, “Methods using a combination of 3-heteroaryl-2-indolinone and a cyclooxygenase-2 inhibitor for the treatment of neoplasia” (PFIZER INC, priority 2002, published 2006)
Where “and” joins values, the source holds several entries; their conditions need not be identical. Equal entries are not always repeated. Where two headings read alike, the source gives them in different places. Values belong to the compound of their own block, whether it stands above or below them.

Legend:
PDGFR [1] = target: PDGFR (Homo sapiens, UniProt P09619); test: PDGF-R ELISA
Sequence of PDGFR (Homo sapiens, UniProt P09619) (P09619 33-1106): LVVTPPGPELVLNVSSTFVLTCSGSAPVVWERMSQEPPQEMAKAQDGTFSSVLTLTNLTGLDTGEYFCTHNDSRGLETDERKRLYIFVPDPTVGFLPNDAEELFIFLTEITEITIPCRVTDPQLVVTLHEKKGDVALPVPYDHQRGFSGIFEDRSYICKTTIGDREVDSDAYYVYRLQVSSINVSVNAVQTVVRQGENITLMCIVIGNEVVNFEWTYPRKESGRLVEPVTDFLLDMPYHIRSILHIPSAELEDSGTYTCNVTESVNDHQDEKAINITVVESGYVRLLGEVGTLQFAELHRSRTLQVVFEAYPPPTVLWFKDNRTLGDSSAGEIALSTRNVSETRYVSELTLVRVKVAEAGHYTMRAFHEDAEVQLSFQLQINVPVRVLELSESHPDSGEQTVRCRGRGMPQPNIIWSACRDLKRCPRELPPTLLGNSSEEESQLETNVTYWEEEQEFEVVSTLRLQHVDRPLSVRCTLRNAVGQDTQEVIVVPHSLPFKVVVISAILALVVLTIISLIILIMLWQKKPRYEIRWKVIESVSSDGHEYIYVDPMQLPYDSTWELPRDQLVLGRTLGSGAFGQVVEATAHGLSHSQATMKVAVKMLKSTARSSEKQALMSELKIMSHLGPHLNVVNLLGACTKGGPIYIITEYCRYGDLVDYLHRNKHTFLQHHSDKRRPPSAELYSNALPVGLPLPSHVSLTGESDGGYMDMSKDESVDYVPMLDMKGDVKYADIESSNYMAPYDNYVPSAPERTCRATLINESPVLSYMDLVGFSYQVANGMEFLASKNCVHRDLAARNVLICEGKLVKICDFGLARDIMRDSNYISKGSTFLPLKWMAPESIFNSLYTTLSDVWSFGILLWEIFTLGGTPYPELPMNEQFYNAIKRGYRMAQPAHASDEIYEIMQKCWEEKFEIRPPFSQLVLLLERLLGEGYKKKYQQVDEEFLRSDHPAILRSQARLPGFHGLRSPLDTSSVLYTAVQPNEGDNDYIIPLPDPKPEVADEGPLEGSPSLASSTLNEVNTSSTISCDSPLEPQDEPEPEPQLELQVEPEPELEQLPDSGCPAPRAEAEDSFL

PDGFR [2] = test: PDGF-induced BrdU incorporation assay in 3T3/EGFR cells; type: cell-based; conditions: Mitogenesis in 3T3/EGFR cells, read-out: PDGFR PDGF Ligand IC50
FGFR = FGFR (Mus musculus, UniProt P16092); test: FGF ligand BrdU incorporation in 3T3/EGFR cells; type: cell-based; conditions: Mitogenesis in 3T3/EGFR cells
Sequence of FGFR (P16092 22-822, stated change not applied): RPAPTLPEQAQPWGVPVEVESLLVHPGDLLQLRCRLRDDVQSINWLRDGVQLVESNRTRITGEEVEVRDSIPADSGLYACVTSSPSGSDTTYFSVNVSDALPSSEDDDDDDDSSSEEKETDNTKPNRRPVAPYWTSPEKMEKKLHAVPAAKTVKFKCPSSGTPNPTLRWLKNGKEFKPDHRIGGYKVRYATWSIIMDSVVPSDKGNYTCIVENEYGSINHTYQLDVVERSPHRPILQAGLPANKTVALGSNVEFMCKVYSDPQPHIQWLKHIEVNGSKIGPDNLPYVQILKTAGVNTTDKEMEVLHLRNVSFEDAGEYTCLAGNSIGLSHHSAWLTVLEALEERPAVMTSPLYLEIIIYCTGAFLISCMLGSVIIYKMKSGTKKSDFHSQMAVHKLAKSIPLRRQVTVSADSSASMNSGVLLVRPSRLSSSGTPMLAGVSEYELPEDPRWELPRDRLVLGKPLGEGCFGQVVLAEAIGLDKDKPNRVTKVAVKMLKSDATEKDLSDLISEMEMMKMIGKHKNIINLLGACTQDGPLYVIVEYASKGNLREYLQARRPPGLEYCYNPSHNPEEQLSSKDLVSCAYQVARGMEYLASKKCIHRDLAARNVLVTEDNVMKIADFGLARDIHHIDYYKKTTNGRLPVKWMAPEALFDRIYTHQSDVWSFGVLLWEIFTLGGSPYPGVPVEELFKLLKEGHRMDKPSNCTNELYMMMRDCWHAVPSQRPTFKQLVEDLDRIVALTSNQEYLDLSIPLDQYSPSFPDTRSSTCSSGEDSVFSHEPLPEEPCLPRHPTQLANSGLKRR

[3] = tested on: 1483 human head and neck squamous cell carcinoma (HNSCC) xenograft; test: HN1483 tumor model: paw tumor volume of treated mice; type: in vivo, nude mice; conditions: for Tumor vol. Average: group average; for Paw volume, paw / Tumor vol.: individual mice
[4] = SU-5416/50 mgkd, Day 17 Mar. 16, 2001
[5] = SU-5416/50 mgkd, Day 21 Mar. 20, 2001
[6] = SU-5416/50 mgkd, Day 24 Mar. 23, 2001
[7] = SU-5416/50 mgkd, Day 31 Apr. 2, 2001
[8] = SU-5416/50 mgkd, Day 31 Mar. 30, 2001

SMILES: CN(C)c1ccc(C=C2C(=O)Nc3ccc(Cl)cc32)cc1 [SU4967, 5-Chloro-3-(4-dimethylaminobenzylidenyl)-2-indolinone]
IC50 (PDGFR [1]): 7.9 µM
IC50 (PDGFR [2]): 9 µM
IC50 (FGFR): 4.9 µM

SMILES: O=C1Nc2ccccc2C1=Cc1ccc(N2CCOCC2)cc1 [SU4981, 3-[4-(Morpholin-4-yl)benzylidenyl]-2-indolinone]
IC50 (PDGFR [1]): 33.1 µM
IC50 (PDGFR [2]): 3 µM
IC50 (FGFR): 10 µM

SMILES: Cc1c(CCC(=O)O)c[nH]c1C=C1C(=O)Nc2ccccc21 [SU5402, 3-[(3-(2-carboxyethyl)-4-methylpyrrol-5-yl)methylene]-2-indolinone]
IC50 (PDGFR [2]): 50 µM
IC50 (FGFR): 40 µM

SMILES: COC(=O)CCc1c(C)c[nH]c1C=C1C(=O)Nc2ccccc21 [SU5407, 3-{[4-(2-methoxycarbonylethyl)-3-methylpyrrol-5-yl]methylene}-2-indolinone]
IC50 (PDGFR [1]): 53.7 µM

SMILES: Cc1cc(C)c(C=C2C(=O)Nc3ccccc32)[nH]1 [SU5416, 3-[(2,4-Dimethylpyrrol-5-yl)methylene]-2-indolinone]
body wt, individual mouse (group 2, SU5416 25 mg/kg/day s.c., Day 0 (day of injection), 25 mg/kg/day): 31.93
body wt, individual mouse (group 2, SU5416 25 mg/kg/day s.c., Day 7, 25 mg/kg/day): 32.41 and 25.96
body wt, individual mouse (group 2, SU5416 25 mg/kg/day s.c., Day 10, 25 mg/kg/day): 32.36 and 25.96 and 31
body wt, individual mouse (group 2, SU5416 25 mg/kg/day s.c., Day 14, 25 mg/kg/day): 28.02 and 32.11 and 23.91 and 21.18
body wt, individual mouse (group 2, SU5416 25 mg/kg/day s.c., Day 17, 25 mg/kg/day): 28.98 and 18.97
body wt, individual mouse (group 2, SU5416 25 mg/kg/day s.c., Day 21, 25 mg/kg/day): 22.29 and 18.32
body wt, individual mouse (group 2, SU5416 25 mg/kg/day s.c., Day 24, 25 mg/kg/day): 24.83 and 21.3 and 22.29 and 22.93 and 18.15 and 29.02
body wt, individual mouse (group 2, SU5416 25 mg/kg/day s.c., Day 31, 25 mg/kg/day): 23.86 and 17.88 and 20.51
body wt, individual mouse (group 2, SU5416 25 mg/kg/day s.c., Day 35, 25 mg/kg/day): 21.74 and 22.95 and 18.42
body wt, individual mouse (group 5, SU-5416 50 mpkd, Day 0 (day of injection)): 26.04
body wt, individual mouse (group 5, SU-5416 50 mpkd, Day 7): 29.04
body wt, individual mouse (group 5, SU-5416 50 mpkd, Day 21): 25.96 and 24.96
body wt, individual mouse (group 5, SU-5416 50 mpkd, Day 24): 22.85 and 24.01 and 24.79
body wt, individual mouse (group 5, SU-5416 50 mpkd, Day 31): 26.03
Tumor vol. Average ([3]; SU5416 25 mg/kg/day s.c. group, Day 7 Mar. 3, 2001 (before start of dosing)): 0.14
Paw volume, paw ([3]; SU5416 25 mg/kg/day s.c. group, Day 7 Mar. 3, 2001 (before start of dosing), 25 mg/kg/day): 0.26 (3×) and 0.28 and 0.27 (2×) and 0.24 and 0.23
Tumor vol. ([3]; SU5416 25 mg/kg/day s.c. group, Day 7 Mar. 3, 2001 (before start of dosing), paw minus 0.10, 25 mg/kg/day): 0.16 (2×) and 0.17 (3×) and 0.18 and 0.14 and 0.13
Tumor vol. Average ([3]; SU5416 25 mg/kg/day s.c., Day 14 Mar. 13, 2001): 0.18
Paw volume, paw ([3]; SU5416 25 mg/kg/day s.c., Day 14 Mar. 13, 2001, 25 mg/kg/day): 0.29 (3×) and 0.28 (2×) and 0.27 and 0.26 and 0.24
Tumor vol. ([3]; SU5416 25 mg/kg/day s.c., Day 14 Mar. 13, 2001, paw minus BKG. 0.10, 25 mg/kg/day): 0.19 (3×) and 0.18 and 0.17 and 0.16 (2×) and 0.14
Tumor vol. Average ([3]; SU5416 25 mg/kg/day s.c., Day 17 Mar. 16, 2001): 0.21
Paw volume, paw ([3]; SU5416 25 mg/kg/day s.c., Day 17 Mar. 16, 2001, 25 mg/kg/day): 0.37 (2×) and 0.33 and 0.29 and 0.28 (2×) and 0.36 and 0.23
Tumor vol. ([3]; SU5416 25 mg/kg/day s.c., Day 17 Mar. 16, 2001, paw minus BKG. 0.10, 25 mg/kg/day): 0.27 (2×) and 0.23 and 0.19 and 0.18 (2×) and 0.26 and 0.13
Tumor vol. Average ([3]; SU5416 25 mg/kg/day s.c., Day 21 Mar. 20, 2001): 0.34
Paw volume, paw ([3]; SU5416 25 mg/kg/day s.c., Day 21 Mar. 20, 2001, 25 mg/kg/day): 0.55 and 0.49 and 0.37 and 0.34 and 0.4 and 0.58 and 0.56 and 0.24
Tumor vol. ([3]; SU5416 25 mg/kg/day s.c., Day 21 Mar. 20, 2001, paw minus BKG. 0.10, 25 mg/kg/day): 0.45 and 0.39 and 0.27 and 0.24 and 0.30 and 0.48 and 0.46 and 0.14
Tumor vol. Average ([3]; SU5416 25 mg/kg/day s.c., Day 24 Mar. 23, 2001): 0.39
Paw volume, paw ([3]; SU5416 25 mg/kg/day s.c., Day 24 Mar. 23, 2001, 25 mg/kg/day): 0.59 and 0.8 and 0.37 and 0.4 and 0.49 and 0.65 and 0.61 and 0.22
Tumor vol. ([3]; SU5416 25 mg/kg/day s.c., Day 24 Mar. 23, 2001, paw minus BKG. 0.10, 25 mg/kg/day): 0.49 and 0.50 and 0.27 and 0.30 (2×) and 0.55 and 0.51 and 0.12
Tumor vol. Average ([3]; SU5416 25 mg/kg/day s.c., Day 31 Apr. 2, 2001): 0.87
Paw volume, paw ([3]; SU5416 25 mg/kg/day s.c., Day 31 Apr. 2, 2001, 25 mg/kg/day): 0.82 and 0.79 and 0.57 and 0.6 and 0.66 and 0.98 and 0.75 and 0.21
Tumor vol. ([3]; SU5416 25 mg/kg/day s.c., Day 31 Apr. 2, 2001, paw minus BKG. 0.10, 25 mg/kg/day): 0.72 and 0.69 and 0.47 and 0.50 and 0.56 and 0.68 and 0.65 and 0.11
Tumor vol. Average ([3]; SU5416 25 mg/kg/day s.c., Day 31 Mar. 30, 2001): 0.56
Paw volume, paw ([3]; SU5416 25 mg/kg/day s.c., Day 31 Mar. 30, 2001, 25 mg/kg/day): 0.84 and 0.5 and 0.71 and 0.23 and 0.73 and 0.81 and 0.54 and 0.56
Tumor vol. ([3]; SU5416 25 mg/kg/day s.c., Day 31 Mar. 30, 2001, paw minus BKG. 0.10, 25 mg/kg/day): 0.74 and 0.70 and 0.61 and 0.13 and 0.63 and 0.71 and 0.44 and 0.46
Tumor vol. Average ([3]; SU5416 25 mg/kg/day s.c., Start dosing Day 10 Mar. 9, 2001): 0.16
Paw volume, paw ([3]; SU5416 25 mg/kg/day s.c., Start dosing Day 10 Mar. 9, 2001, 25 mg/kg/day): 0.3 and 0.25 and 0.23 and 0.26 and 0.27 and 0.29 and 0.24 (2×)
Tumor vol. ([3]; SU5416 25 mg/kg/day s.c., Start dosing Day 10 Mar. 9, 2001, paw minus BKG. 0.10, 25 mg/kg/day): 0.20 and 0.15 and 0.13 and 0.10 and 0.17 and 0.19 and 0.14 (2×)
Paw volume, paw ([3]; SU-5416/50 mgkd, Day 14 Mar. 13, 2001): 0.29 and 0.22 and 0.32 and 0.27 (2×) and 0.24 and 0.26 and 0.21
Tumor vol. Average [3, 4]: 0.19
Paw volume, paw [3, 4]: 0.24 and 0.27 and 0.2 and 0.3 and 0.32 and 0.22 and 0.39 and 0.34
Tumor vol. ([3]; SU-5416/50 mgkd, Day 17 Mar. 16, 2001, paw minus BKG. 0.10): 0.14 and 0.17 and 0.10 and 0.20 and 0.22 and 0.12 and 0.29 and 0.24
Tumor vol. Average [3, 5]: 0.27
Paw volume, paw [3, 5]: 0.27 and 0.36 and 0.19 and 0.31 and 0.44 and 0.22 and 0.63 and 0.48
Tumor vol. ([3]; SU-5416/50 mgkd, Day 21 Mar. 20, 2001, paw minus BKG. 0.10): 0.17 and 0.28 and 0.09 and 0.21 and 0.34 and 0.12 and 0.53 and 0.38
Tumor vol. Average [3, 6]: 0.30
Paw volume, paw [3, 6]: 0.25 and 0.46 and 0.19 and 0.28
Tumor vol. ([3]; SU-5416/50 mgkd, Day 24 Mar. 23, 2001, paw minus BKG. 0.10): 0.15 and 0.36 and 0.09 and 0.18 and 0.42 and 0.08 and 0.64
Tumor vol. Average [3, 7]: 0.34
Paw volume, paw [3, 7]: 0.18 and 0.53 and 0.15 and 0.25
Tumor vol. ([3]; SU-5416/50 mgkd, Day 31 Apr. 2, 2001, paw minus BKG. 0.10): 0.08 (2×) and 0.43 and 0.05 and 0.15 and 0.59
Tumor vol. Average [3, 8]: 0.36
Paw volume, paw [3, 8]: 0.24 and 0.6 and 0.18 and 0.21
Tumor vol. ([3]; SU-5416/50 mgkd, Day 31 Mar. 30, 2001, paw minus BKG. 0.10): 0.14 (2×) and 0.50 and 0.08 and 0.11 and 0.73 and 0.62

SMILES: CCc1ccc(C=C2C(=O)Nc3ccccc32)s1 [SU5451, 3-[(2-Ethylthien-5-yl)methylene]-2-indolinone]
IC50 (PDGFR [2]): 30 µM
IC50 (FGFR): 16 µM

Other lines, results leading:

IC50 (PDGFR [2]): 5.2 µM
SMILES: Cc1c[nH]c(C=C2C(=O)Nc3ccccc32)c1C [SU5406, 3-[(3,4-Dimethylpyrrol-2-yl)methylene]-2-indolinone]

IC50 (PDGFR [1]): 65.5 µM
SMILES: CCc1c(C=C2C(=O)Nc3ccccc32)[nH]c(C)c1C [SU5453, 3-[(4,5-Dimethyl-3-ethylpyrrol-2-yl)methylene]-2-indolinone]

IC50 (PDGFR [2]): 40 µM
IC50 (FGFR): 25 µM
SMILES: CCOC(=O)CCc1c(C=C2C(=O)Nc3ccccc32)[nH]c(C(=O)OCC)c1CC(=O)OCC [SU5465, 3-[(5-Ethoxycarbonyl-3-ethoxycarbonylethyl-4-ethoxylcarbonylmethylpyrrol-2-yl)methylene]-2-indolinone]

IC50 (PDGFR [1]): 55.9 µM
IC50 (PDGFR [2]): 8 µM
SMILES: Cc1cnc(C=C2C(=O)Nc3ccccc32)[nH]1 [SU5468, 3-[(5-Methylimidazol-2-yl)methylene]-2-indolinone]

IC50 (PDGFR [2]): 4 µM
IC50 (FGFR): 15 µM
SMILES: Cc1cnc(C=C2C(=O)Nc3ccccc32)s1 [SU5469, 3-[(5-Methylthiazol-2-yl)methylene]-2-indolinone]

IC50 (PDGFR [2]): 6.5 µM
IC50 (FGFR): 9 µM
SMILES: O=C1Nc2ccccc2C1=Cc1c(Br)cnn1Cc1ccc(Cl)cc1 [SU5475, 3-[(4-Bromo-1-(4-chlorobenzyl)pyrazol-5-yl)methylene]-2-indolinone]
